# Key:
# [1] = tested on: MG-63 osteoblast cells; assay: MTT-based proliferation assay, osteoblast cells; type: cell-based, human
# Protocol: (§1) Human osteoblast MG-63 cells and HS-883 osteoclast cells were treated with IP6 in vitro and their abilities to proliferate and differentiate were evaluated by MTT-based cytotoxicity assay (for proliferation) and alkaline phosphatase (ALP) and matrixmetalloproteinase-2 (MMP-2), activity for differentiation of bone cells.
# (§2) In an additional study, osteoblast MG-63 human osteosarcoma cells and osteoclast HS-883.T human bone giant sarcoma cells were cultured in Eagle's Minimum Essential Medium, in Eagle's Balanced Salt Solution with non-essential amino-acids and Dulbecco's Modified Eagles Medium, respectively. Both media were supplemented with 10% fetal bovine serum (FBS) and L-glutamine. Additionally, 1 mM of sodium pyruvate was added to culture media for MG-63 cells.
# (§3) Stock solution of 100 mM Na-IP6 was prepared in distilled water, pH adjusted to 7.4, and diluted as needed in culture media.
# (§4) Cell growth and proliferation were determined with the MTT-based cytotoxicity assay. Briefly, the MG-63 and HS-883.T cell lines were seeded into 96-well plates at a density 2000 cells per well. […] Cells were allowed to proliferate for 24 or 72 hours. 100 μL of MTT solution at concentration I mg/ml was added at the end of proliferation period to each well and allowed to incubate for 4 hours. The formazan product of MTT reduction was dissolved by adding 150 μL of DMSO. Immediately after, growth changes were evaluated by recording the reduction of MTT at 540 nm in a plate reader using data reduction software for measurement of optical density.
# [2] = tested on: alkaline phosphatase (ALP); assay: ALP activity in osteoblast cells (differentiation marker); type: cell-based, human; conditions: MG-63 cells
# Protocol: as §1, with “cells. IP6 activates ALP and MMP-2 expression in osteoblast cells, indicating their better ability to lay new bone.” for “cells.”
# (§5) To study the osteoblast and osteoclast differentiation in the presence of IP6, the following markers were evaluated: alkaline phosphatase (ALP), matrix metalloproteinase-2 (MMP-2) and tartrate-resistant acid phosphatase (TRAP).
# ALP activity was measured using a commercially available kit. Osteoblast cells were plated in tissue culture dishes in amount of 4×10^5 cells per plate. […] Incubation was stopped on ice; cells were washed twice with PBS and lysed with 0.25% of Triton X-100. 25 μL of lysate was mixed with 2.5 mL of ALP sample buffer, incubated for 4 or 24 hours in room temperature and absorption was read in a plate reader at λ405 nm.
# [3] = tested on: HS-883 osteoclast cells; assay: MTT-based proliferation assay, osteoclast cells; type: cell-based, human
# Protocol: as §1, §2, §3, §4
# [4] = tested on: matrix metalloproteinase-2 (MMP-2); assay: MMP-2 zymography, culture media of osteoclast cells; type: cell-based, human; conditions: 100 and 300 μM of IP6
# Protocol: as §5
# (§6) To evaluate MMPs activity in culture medium zymography was performed. Cells were plated in tissue culture dishes, allowed to grow to 60 -70% confluence and then were treated with different concentrations of IP6 in serum free media. After 48 hours conditioned media was collected and immediately analyzed for matrix metalloproteinase activity. 10% Polyacrilamide gels were used to perform electrophoresis, following which gels were incubated in renaturating buffer for 30 minutes with gentle agitation. Incubation was continued in developing buffer overnight at 37° C. At the end of incubation time gels were stained with Comassie blue staining solution for 10 minutes, rinsed with destaining solution one (9.2% acetic acid, 45.4% methanol) and incubated with destaining solution two (10% acetic acid and 10% methanol) at room temperature as needed. Proteinase activity was measured using UN-SCAN-IT gel digitizing software for Windows and expressed as percentage according to the amount of determined Pixel average for each band.
# [5] = tested on: matrix metalloproteinase-2 (MMP-2); assay: MMP-2 (gelatinase A) zymography, culture media of osteoblast cells; type: cell-based, human; conditions: for activity of gelatinase A in culture media: osteoblast cells
# Protocol: as §1, with “cells. IP6 activates ALP and MMP-2 expression in osteoblast cells, indicating their better ability to lay new bone.” for “cells.”
# as §5, §6
# [6] = Enamel dissolution (weight loss of enamel) in soft drinks with or without phytic acid; set-up: species or system human; conditions: for effect on enamel dissolution: addition of 1% phytic acid (FIG. 10)
# Protocol: For instance, studies were performed on sections of enamel removed from extracted human teeth as well as on extracted human teeth that were coated such that only the crown of the tooth (the enamel portion) was exposed to the beverage. […] These enamel specimens were immersed in the various soft drinks with or without additions of 0.5 and 1.0% by weight of dodecasodium salt of phytic acid (Inositol hexaphosphoric acid). The enamel dissolution was determined as the weight loss of the enamel at different time intervals in the untreated and treated beverages, as shown in FIGS. 7 and 8.
# [7] = Effect of IP6 and inositol additions on % TA of soft drinks; type: physicochemical
# Protocol: Titratable (total) acidity measures the total or potential acidity and indicates the total number of acid molecules, whereas a pH measurement represents the hydrogen ion concentration. The titratable acidity (as % citric acid) is calculated by titrating the beverage against sodium hydroxide (NaOH) solution to pH 8.2 and using the following relationship: [formula] in accordance with the standard procedures for determining the titratable acidity of a variety of fluids, including milk.
smiles,measurement,setting,value
"C[C@]12CCC(=O)C=C1CC[C@@H]1[C@@H]2[C@@H](O)C[C@@]2(C)[C@H]1CC[C@]2(O)C(=O)CO [Hydrocortisone, hydrocortisone, reference compound]",reduction of the number of osteoblast cells,"[1]; 10 μM hydrocortisone, p < 0.05",30.5%
"O=P(O)(O)O[C@H]1[C@H](OP(=O)(O)O)[C@@H](OP(=O)(O)O)[C@H](OP(=O)(O)O)[C@@H](OP(=O)(O)O)[C@H]1OP(=O)(O)O [IP6, inositol hexaphosphate]","absorbance at 540 nM (MTT), mean ± SD",[1]; Na-IP6 50 μM + 70 μM inositol with 10 μM hydrocortisone,1.73 ± 0.03
same,"absorbance at 540 nM (MTT), mean ± SD","[1]; Na-IP6 50 μM + 70 μM inositol, no hydrocortisone (control 1.54 ± 0.12)",1.69 ± 0.09
same,effect on hydrocortisone suppression of osteoblast growth/proliferation,"[1]; with 10 μM hydrocortisone, 50-300 μM sodium salt of IP6 and 70 μM inositol",opposes the negative effect of hydrocortisone
same,ALP activity/expression in osteoblast cells,[2],activates
same,"absorbance at 540 nm (MTT), mean ± SD",[3]; 300 μM Na-IP6 + 70 μM inositol with 10 μM hydrocortisone,0.45 ± 0.02
same,"absorbance at 540 nm (MTT), mean ± SD","[3]; 300 μM Na-IP6 + 70 μM inositol, no hydrocortisone (control 0.52 ± 0.01)",0.34 ± 0.02
same,proliferation of osteoclast cells,[3]; in vitro IP6 treatment,suppresses the proliferation
same,pro-MMP-2 and MMP-2 activity,[4],decrease
same,MMP-2 expression in osteoblast cells,[5]; MG-63 cells,activates
same,activity of gelatinase A in culture media,[5]; 300 μM of IP6,Significant increase of activity
same,activity of gelatinase A in culture media,"[5]; IP6 50 to 300 μM, 48 hours",increased the activity of gelatinase A
same,effect on enamel dissolution,[6]; 5% lemon juice,reduction in enamel dissolution
same,effect on enamel erosivity,[6]; Mountain Dew beverage (FIG. 7),reducing enamel erosivity
same,effect on enamel dissolution,[6]; Mountain Dew,reduction in enamel dissolution
same,effect on enamel erosivity,[6]; Red Bull beverage (FIG. 8),reducing enamel erosivity
same,effect on titratable acidity,"[7]; Fresca, 0.5% addition (FIG. 9)",reduction in titratable acidity
same,effect on titratable acidity,"[7]; Mountain Dew, 1.0% addition (FIG. 9)",reduction in titratable acidity
same,effect on titratable acidity,"[7]; Sprite, 0.5% addition (FIG. 9)",reduction in titratable acidity
"O=P([O-])([O-])O[C@H]1[C@H](OP(=O)([O-])O)[C@H](OP(=O)([O-])[O-])[C@H](OP(=O)([O-])O)[C@@H](OP(=O)([O-])[O-])[C@@H]1OP(=O)([O-])O.[Na+].[Na+].[Na+].[Na+].[Na+].[Na+].[Na+].[Na+].[Na+] [Na-IP6, dodecasodium inositol hexaphosphate]",% TA,"[7]; Fresca, after addition of 0.5 g Ca-Mg IP6 + Inositol or 1 g Na-IP6 (beverage alone 0.46)",0.0%
same,% TA,"[7]; Red Bull, after addition of 0.5 g Ca-Mg IP6 + Inositol or 1 g Na-IP6 (beverage alone 1.04)",0.22%
